Source: patent US8357377B2, “Cyclodextrin-based materials, compositions and uses related thereto” (priority 2002, dated 2013)

Assay: Rat PVA sponge model, morphological analysis (Masson's Trichrome sections)
Design: species or system Harlan Sprague-Dawley rats
Conditions: in vivo
Protocol: Six small incisions (0.5 cm) were performed and polyvinyl alcohol (PVA, M-PACTO®) sponges were subcutaneously implanted on the ventral side of male Harlan Sprague-Dawley rats.
Four days after implantation, test and control materials were diluted with vPBS and liquid collagen (Cohesion Technologies®) or 58 kD Cyclodextrin (CD)-Adamantane matrix as described above and injected into PVA sponges. Final collagen formulation was 1.8 mg/mL, pHed with NaOH, and brought up to volume with vPBS. Final 58 kD Cyclodextrin (CD)-Adamantane matrix formulation was 100 mg/mL. 200 μL total volume of test reagent was delivered to each sponge. Animals were sacrificed and sponges were removed 2 days after injections. Sponges were cut into three pieces and the majority of the sponge (˜70-80%) was frozen in liquid nitrogen and stored at −80° C. for QPCR and QRT-PCR analysis. A small portion of the sponge was fixed in 4% PFA at 4° C. for 18 hours, paraffin embedded, and sectioned (5 μm). Sections were stained using Masson's Trichrome (cells=black, vasculature=red, and collagen=blue) and Hematoxylin-Eosin methods. Tissue sections were analyzed microscopically for gross histology by two separate investigators.
5 μm, Masson's Trichrome stained paraffin sections were analyzed by two separate observers. Sponge characteristics were qualitatively evaluated by the following criteria: Minimal<Light<Moderate<Heavy<Severe for all categories except Capsule Size. The following criteria were used for evaluation of Capsule Size: Thin<Moderate<Thick<Very Thick.

- Capsule Size: Thin
- Immune Response: Minimal
- Immune response (gross histological examination): minimal immune response
Substance: Collagen
